Measurements from US12049450B2, “Pyridyloxy-carboxylate derivative and preparation method therefor, herbicidal composition, and use” (Qingdao Kingagroot Chemical Compound Co., Ltd., priority 2018, dated 2024).

Key:
Assay type in all cases: in vivo
Abutilon theophrasti = experiment: Post-emergence test experiment (greenhouse pot, spray at 2-3 leaf stage); conditions: 1000 g/ha; post-emergence spray at 2-3 leaf stage; assessed after 3 weeks; fresh weight inhibition rate
Outline: (§1)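 Activity graded levels 0-5 by fresh-weight inhibition (level 5 above 85%, level 0 below 5%), assessed 3 weeks after treatment. Plants grown in greenhouse pots were sprayed post-emergence at 2-3 leaves using acetone/tween-80 solutions with methyl oleate synergist (1.5 L/ha).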

Cyperus iria = experiment: as above; conditions: post-emergence, 600 g/ha, after 3 weeks; from Hunan, resistant to ALS inhibitor herbicides
Outline: as §1

Digitaria sanguinalis = experiment: as above; conditions: 1000 g/ha; post-emergence spray at 2-3 leaf stage; assessed after 3 weeks; fresh weight inhibition rate
Outline: as §1

Echinochloa crusgalli = experiment: as above; conditions: for Activity level (growth inhibition rate) Echinochloa crusgalli: 1000 g/ha, post-emergence spray at 2-3 leaf stage, assessed after 3 weeks, fresh weight inhibition rate; for Echinochloa crusgalli, activity level (growth inhibition rate): post-emergence, 600 g/ha, after 3 weeks, from Hunan, resistant to ALS inhibitor herbicides
Outline: as §1

Galium spurium = experiment: as above; conditions: 1000 g/ha; post-emergence spray at 2-3 leaf stage; assessed after 3 weeks; fresh weight inhibition rate
Outline: as §1

Indica rice = experiment: as above; conditions: post-emergence, 600 g/ha, after 3 weeks
Outline: as §1

Japonica rice = experiment: as above; conditions: post-emergence, 600 g/ha, after 3 weeks
Outline: as §1

Monochoria vaginalis [1] = experiment: as above; conditions: 1000 g/ha; post-emergence spray at 2-3 leaf stage; assessed after 3 weeks; fresh weight inhibition rate
Outline: as §1

rice (japonica rice) = experiment: Transplanted rice safety evaluation in rice field soil pot; conditions: 1000 g/ha, 21 days after treatment
From the text: (§2) The activity level standard of harmful plants destruction (i. e. growth inhibition rate) is as follows: • Level 5: the growth inhibition rate is greater than 85%; • Level 4: the growth inhibition rate is equal to or greater than 60% and less than 85%; • Level 3: the growth inhibition rate is equal to or greater than 40% and less than 60%; • Level 2: the growth inhibition rate is equal to or greater than 20% and less than 40%; • Level 1: the growth inhibition rate is equal to or greater than 5% and less than 20%; • Level 0: the growth inhibition rate is less than 5%;
(§3) Transplanted rice safety evaluation and weed control effect evaluation in rice field:
In addition, the rice field soil that loaded into the 1/1,000,000 ha pot was leveled to keep water storage at 3-4 cm depth. The 3-leaf stage rice (japonica rice) was transplanted at 3 cm of transplanting depth the next day. The compound of the present invention was treated by the same way after 5 days of transplantation.
(§4) The fertility condition of Monochoria vaginalis 14 days and rice 21 days after the treatment of the compound of the invention with the naked eye.

Monochoria vaginalis [2] = experiment: Weed control effect evaluation in rice field soil pot; conditions: paddy pot, 1000 g/ha, 14 days after treatment; resistant to pyrazosulfuron-ethyl and penoxsulam
From the text: as §2, §3
Rice field soil was loaded into a 1/1,000,000 ha pot. The seeds of Monochoria vaginalis were sowed and gently covered with soil, then left to stand still in greenhouse in the state of 0.5-1 cm of water storage. It was kept at 3-4 cm of water storage thereafter. The weeds were treated by dripping the WP or SC water diluents prepared according to the common preparation method of the compounds of the present invention with pipette homogeneously to achieve specified effective amount when Monochoria vaginalis reached 0.5 leaf stage.
as §4

SMILES | Activity level (growth inhibition rate) Abutilon theophrasti (Abutilon theophrasti) | Cyperus iria, activity level (growth inhibition rate) (Cyperus iria) | Activity level (growth inhibition rate) Digitaria sanguinalis (Digitaria sanguinalis) | Activity level (growth inhibition rate) Echinochloa crusgalli (Echinochloa crusgalli) | Echinochloa crusgalli, activity level (growth inhibition rate) (Echinochloa crusgalli) | Activity level (growth inhibition rate) Galium spurium (Galium spurium) | Indica rice, activity level (growth inhibition rate) (Indica rice) | Japonica rice, activity level (growth inhibition rate) (Japonica rice) | Activity level (growth inhibition rate) Monochoria Vaginalis (Monochoria vaginalis [1]) | Rice, safety level (rice (japonica rice)) | Monochoria Vaginalis, activity level (Monochoria vaginalis [2])
COc1c(Cl)ccc(COC(=O)C(C)Oc2nc(F)c(Cl)c(N)c2Cl)c1F (stereo not drawn) [Compound 85] | 5 (Level 5: the growth inhibition rate is greater than 85%) | 5 (Level 5: the growth inhibition rate is greater than 85%) | 5 (Level 5: the growth inhibition rate is greater than 85%) | 5 (Level 5: the growth inhibition rate is greater than 85%) | 5 (Level 5: the growth inhibition rate is greater than 85%) | 5 (Level 5: the growth inhibition rate is greater than 85%) | 0 (Level 0: the growth inhibition rate is less than 5%) | 0 (Level 0: the growth inhibition rate is less than 5%) | 5 (Level 5: the growth inhibition rate is greater than 85%) | 0 (Level 0: the growth inhibition rate is less than 5%) | 5 (Level 5: the growth inhibition rate is greater than 85%)
CC(Oc1nc(F)c(Cl)c(N)c1Cl)C(=O)OCc1ccccn1 (stereo not drawn) [Compound 120] | 5 (Level 5: the growth inhibition rate is greater than 85%) | 5 (Level 5: the growth inhibition rate is greater than 85%) | 5 (Level 5: the growth inhibition rate is greater than 85%) | 5 (Level 5: the growth inhibition rate is greater than 85%) | 5 (Level 5: the growth inhibition rate is greater than 85%) | 5 (Level 5: the growth inhibition rate is greater than 85%) | 0 (Level 0: the growth inhibition rate is less than 5%) | 0 (Level 0: the growth inhibition rate is less than 5%) | 5 (Level 5: the growth inhibition rate is greater than 85%) | 0 (Level 0: the growth inhibition rate is less than 5%) | 5 (Level 5: the growth inhibition rate is greater than 85%)
CC(Oc1nc(F)c(Cl)c(N)c1Cl)C(=O)SCc1cc(C2CC2)nn1C (stereo not drawn) [Compound 128] | 5 (Level 5: the growth inhibition rate is greater than 85%) | 5 (Level 5: the growth inhibition rate is greater than 85%) | 5 (Level 5: the growth inhibition rate is greater than 85%) | 5 (Level 5: the growth inhibition rate is greater than 85%) | 5 (Level 5: the growth inhibition rate is greater than 85%) | 5 (Level 5: the growth inhibition rate is greater than 85%) | 0 (Level 0: the growth inhibition rate is less than 5%) | 0 (Level 0: the growth inhibition rate is less than 5%) | 5 (Level 5: the growth inhibition rate is greater than 85%) | 0 (Level 0: the growth inhibition rate is less than 5%) | 5 (Level 5: the growth inhibition rate is greater than 85%)
